Assay results published in patent publication US8178506B2, “Oligomeric compounds and compositions for use in modulation of small non-coding RNAs” (Regulus Therapeutics Inc., priority 2003, dated 2012).

Key:
Format in all cases: cell-based, human
mir-21 mature miRNA = assay: Northern blot of mature mir-21 in HeLa cells; settings: 100 nM
Protocol: In one embodiment, the expression of mir-21 (noted to be expressed at high levels in HeLa cells) was assessed in cells treated with oligomeric compounds. Using the transfection methods previously described, HeLa cells were treated with 100 nM of the uniform 2′-MOE oligomeric compound ISIS Number 327917 (SEQ ID NO: 335) targeting the mir-21 mature miRNA. Total RNA was isolated by lysing cells in 1 mL TRIZOL™ (Invitrogen) using the manufacturer's recommended protocols. […] Real-time RT-PCR analysis was also performed on HeLa cells treated with ISIS 327917 using a primer/probe set specific for the mir-21 pri-miRNA molecule [forward primer=ISIS 339332 ([…]; herein incorporated as SEQ ID NO.: 911), reverse primer-ISIS 339333 (TCGACTGGTGTTGCCATGA; herein incorporated as SEQ ID NO.: 912), and probe=ISIS 339334 ([…]; herein incorporated as SEQ ID NO.: 913)]. Total RNA was quantified using RiboGreen™ RNA quantification reagent (Molecular Probes, Inc. Eugene, Oreg.), expression levels observed for the target were normalized to 5.8S rRNA, and values were expressed relative to an untreated control (UTC).

mir-21 miRNA = assay: pGL3-mir-21 sensor luciferase assay in HeLa cells
Text: In order to assess the ability of miRNAs to bind predicted miRNA binding sites and regulate the expression of the luciferase reporter, in some embodiments, expression systems based on the pGL3-Control (Promega Corp., Madison Wis.) reporter vector and comprising either a mir-15a, mir-21, or a mir-23b miRNA binding site were developed and used in transient transfections of HeLa cells to determine whether the endogenous mir-15a, mir-21, or mir-23b miRNAs, respectively, could repress luciferase reporter gene expression.
The pGL3-mir-21 sensor plasmid was created by cloning the sequence ([…]; SEQ ID NO: 335), representing a sequence complementary to the mir-21 miRNA, into the Xba site of the pGL3-Control plasmid, placing the potential miRNA-binding site in the 3′UTR of the luciferase reporter. This reporter plasmid was used to transfect HeLa cells and it was observed that the endogenous mir-21 miRNA was able to inhibit luciferase expression from the pGL3-mir-21 sensor plasmid. Thus, to further evaluate the ability of the mir-21 miRNA to bind this target site encoded by the pGL3-mir-21 sensor plasmid, and to assess the ability of oligomeric compounds to interfere with mir-21-mediated silencing, pGL3-mir-21 sensor-expressing HeLa cells were treated with varying concentrations (10 nM or 50 nM) of the following oligomeric compounds: ISIS Number 327917 (SEQ ID NO: 335), a phosphorothioate uniform 2′-MOE oligomeric compound; ISIS Number 338697 ([…]; herein incorporated as SEQ ID NO: 524), a uniform 2′-MOE oligomeric compound targeting the mir-21 pri-miRNA molecule; and ISIS Number 328415 (SEQ ID NO: 524), a 2′-MOE 5-10-5 gapmer oligomeric compound targeting the mir-21 pri-miRNA. The uniform 2′-MOE phosphorothioate oligomeric compound ISIS Number 327901 (SEQ ID NO: 319) targeting an unrelated miRNA (mir-143) was used as a negative control. The data are the average of three trials and are presented in Table 44 as percent untreated control (luciferase plasmid only, not treated with oligomeric compound) luciferase expression, normalized to pRL-CMV levels.
In one embodiment, the oligomeric compounds ISIS Number 327917 (SEQ ID NO: 335), the phosphorothioate uniform 2′-MOE targeting mature mir-21; ISIS Number 358768 (SEQ ID NO: 918), the uniform 2′-MOE targeting the mir-21 pri-miRNA which stimulated the largest increase in pri-miRNA expression levels by real time quantitative RT-PCR; and ISIS Number 345382 (SEQ ID NO: 335), the 5-10-7 phosphorothioate 2′-MOE gapmer targeting mature mir-21 were selected for dose response studies in HeLa cells using the luciferase reporter system described in Example 27. ISIS Number 342683 (SEQ ID NO: 790), representing the scrambled nucleotide sequence of an unrelated PTP1B antisense oligonucleotide, was used as a negative control. HeLa cells expressing the pGL3-mir-21 sensor plasmid (described in Example 27) were treated with 1.9, 5.5, 16.7, and 50 nM of these oligomeric compounds, to assess the ability of oligomeric compounds to interfere with endogenous mir-21-mediated silencing of the pGL3-mir-21 sensor plasmid. The data are presented in Table 50 as percent untreated control (luciferase plasmid only, not treated with oligomeric compound) luciferase expression, normalized to pRL-CMV levels.

mir-21 pri-miRNA = mir-21 pri-miRNA expression in HeLa cells (real-time RT-PCR)

Sequence: TCAACATCAGTCTGATAAGCTA (chemistry not given here) [ISIS 327917, uniform 2′-MOE PS; targets mir-21]
- expression levels of the mir-21 mature miRNA (mir-21 mature miRNA): 50 % of those of untreated control cells
- expression of the luciferase reporter, pGL3-mir-21 sensor (mir-21 miRNA; HeLa, 10 nM or 50 nM): de-repressed the expression of the luciferase reporter
- expression of the luciferase reporter, pGL3-mir-21 sensor, dose response (mir-21 miRNA; HeLa, 1.9, 5.5, 16.7 and 50 nM): de-repressed the expression of the luciferase reporter, in a dose-dependent fashion
- increase in levels of the mir-21 pri-miRNA molecule (mir-21 pri-miRNA; HeLa, 100 nM): approximately 2 fold
- levels of the mir-21 pri-miRNA molecule (mir-21 pri-miRNA; HeLa, 100 nM): stimulate an increase in levels of the mir-21 pri-miRNA molecule
- mir-21 pri-miRNA levels, dose response (mir-21 pri-miRNA; HeLa, 25, 50, 100 and 200 nM): dose-responsive induction of mir-21 pri-miRNA levels
